Molecular target: BmorOR1·BmorOrco (Bombyx mori, UniProt Q5WA61, P178A)
Format: cell-based
Settings: agonist; co-expressed with BmorOrco; 0.1% DMSO; -80 mV

two-electrode voltage clamp, Xenopus oocytes, dose-response of odorant-induced c: the effect on P178A-BmorOR1 was moderate
SMILES: CCC/C=C\C=C\CCCCCCCCCO [bombykol, (10E,12Z)-hexadecadien-1-ol]
